In ChEMBL document CHEMBL1759868, “Folate pro-drug of cystamine as an enhanced treatment for nephropathic cystinosis” (Bioorg Med Chem Lett, 2011):
Calls of active or inactive are those of the source. No cut-off for these calls is given here.

Columns and labels:
[1] = Cytotoxicity against human cystinotic Fibroblast at 50 uM for 72 hrs by Alamar blue assay; format: cell-based
Fibroblast = experiment: Decrease in intracellular cystine level in human cystinotic Fibroblast at 50 uM for 24 hrs by thiol assay; format: functional, cell-based

In the case of NCCS [CYSTEAMINE], the Activity [1] is reported as “Non-toxic”.

In the case of Cl.NCCSSCCNC(=O)CC[C@H](NC(=O)c1ccc(NCc2cnc3nc(N)nc(O)c3n2)cc1)C(=O)NCCSSCCN, the Activity [1] is reported as “Non-toxic” and the Activity (Fibroblast) is reported as “Active”.
